In brackets after ≈: the same amount, converted by molar mass.
Key:
[1] = Solubility of the compound in pH 4 Britton-Robinson buffer at 24 hrs; assay type: physicochemical; conditions: Britton-Robinson buffer, pH 4
[2] = biological target: T1, Kallikrein-5 (Homo sapiens, UniProt Q9Y337); experiment: Inhibition of recombinant 6His-Q-FLAG tagged human KLK5 expressed in baculovirus infected Sf9 insect cells using (Tos-Gly-Pro-Arg)2[R110].2TFA as substrate measured at 30 secs interval for 5 mins by fluorescence intensity assay; conditions: read-out: pIC50 (converted)
T1 sequence (Q9Y337 whole entry): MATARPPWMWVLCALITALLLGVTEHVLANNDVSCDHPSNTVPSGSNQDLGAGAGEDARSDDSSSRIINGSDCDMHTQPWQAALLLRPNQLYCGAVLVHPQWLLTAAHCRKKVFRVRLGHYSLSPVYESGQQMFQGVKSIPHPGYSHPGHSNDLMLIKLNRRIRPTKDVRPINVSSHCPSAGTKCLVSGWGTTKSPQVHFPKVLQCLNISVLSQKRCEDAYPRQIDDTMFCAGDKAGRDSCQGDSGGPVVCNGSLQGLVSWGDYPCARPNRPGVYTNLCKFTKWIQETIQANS

[3] = test system: Keratinocyte; experiment: Induction of irritation in human epidermal keratinocytes assessed as effect on cell viability over 24 hrs; assay type: cell-based
[4] = biological target: T2, Kallikrein-14 (Homo sapiens, UniProt Q9P0G3); experiment: Inhibition of recombinant C-terminal 10His-tagged human KLK14 (Gln19 to Met248 residues) expressed in mouse NS0 cells using BOC-VPR-AMC as substrate after 40 mins by fluorescence intensity assay
T2 sequence (Q9P0G3 whole entry): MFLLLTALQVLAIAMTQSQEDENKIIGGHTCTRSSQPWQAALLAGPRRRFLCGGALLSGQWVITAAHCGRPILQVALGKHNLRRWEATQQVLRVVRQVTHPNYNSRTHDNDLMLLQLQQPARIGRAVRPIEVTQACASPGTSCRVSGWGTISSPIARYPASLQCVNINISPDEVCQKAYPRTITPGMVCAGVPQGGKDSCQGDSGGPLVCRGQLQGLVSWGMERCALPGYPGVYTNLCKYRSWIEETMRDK

[5] = Absorption property in methanol assessed as molar extinction co-efficient by UV-spectra analysis; assay type: physicochemical
[6] = test system: Keratinocyte; experiment: Induction of irritation in human epidermal keratinocytes assessed as effect on IL1alpha levels over 24 hrs; assay type: cell-based
[7] = biological target: T3, Neutrophil elastase (Homo sapiens, UniProt P08246); experiment: Inhibition of human neutrophil elastase using MeOSuc-AAPV-AMC as substrate after 40 mins by fluorescence intensity assay
T3 sequence (P08246 whole entry): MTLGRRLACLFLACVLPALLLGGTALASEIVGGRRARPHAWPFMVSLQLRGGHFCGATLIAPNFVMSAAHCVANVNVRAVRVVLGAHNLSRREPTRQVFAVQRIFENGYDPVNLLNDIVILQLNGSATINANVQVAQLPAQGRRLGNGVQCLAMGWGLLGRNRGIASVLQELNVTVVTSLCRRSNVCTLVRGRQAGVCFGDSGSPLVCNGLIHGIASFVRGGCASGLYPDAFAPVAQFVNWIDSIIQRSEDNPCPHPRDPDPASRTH

[8] = species on record: Homo sapiens; experiment: Selectivity index, ratio of compound effect for inhibition of recombinant human N-terminal met-His6-tagged matriptase catalytic domain (Gly596 to Val855 residues) expressed in Escherichia coli to compound effect for inhibition of recombinant 6His-Q-FLAG tagged human KLK5 expressed in baculovirus infected insect Sf9 cells
[9] = Absorption property in methanol assessed as maximum absorption wavelength by UV-spectra analysis; assay type: physicochemical
[10] = Solubility of the compound in pH 6 Britton-Robinson buffer at 24 hrs; assay type: physicochemical; conditions: Britton-Robinson buffer, pH 6
[11] = Half life in pH 8 buffer at 0.05 mg/ml under H2O2-induced oxidative condition over 24 hrs; assay type: physicochemical; conditions: buffer with H2O2, pH 8
[12] = biological target: Plasma kallikrein (Homo sapiens, UniProt P03952); experiment: Inhibition of recombinant C-terminal 6-His tagged human KLKB1 (Gly20 to Ala638 residues) expressed in mouse NS0 cells using P-F-R-AMC as substrate after 40 mins by fluorescence intensity assay
[13] = Solubility of the compound in pH 8 Britton-Robinson buffer at 24 hrs; assay type: physicochemical
[14] = biological target: Coagulation factor X (Homo sapiens, UniProt P00742); experiment: Inhibition of recombinant C-terminal 10His-tagged human coagulation factor 10a (Leu24 to Lys488 residues) expressed in baculovirus infected Sf9 insect cells using Mca-RPKPVE-Nval-WRK(Dnp)-NH2 as substrate after 40 mins by fluorescence intensity assay
[15] = species on record: Homo sapiens; experiment: (§1) Selectivity index, ratio of compound effect for inhibition of recombinant C-terminal 6-His tagged human KLKB1 (Gly20 to Ala638 residues) expressed in mouse NS0 cells to compound effect for inhibition of recombinant 6His-Q-FLAG tagged human KLK5 expressed in baculovirus infected insect Sf9 cells
[16] = biological target: Prothrombin (Homo sapiens, UniProt P00734); experiment: Inhibition of recombinant C-terminal 10His-tagged human thrombin (Met1 to Glu622 residues) expressed in mouse NS0 cells using BOC-VPR-AMC as substrate after 40 mins by fluorescence intensity assay
[17] = species on record: Homo sapiens; experiment: as §1, with “10-His” for “6-His”, “coagulation factor 10a (Leu24” for “KLKB1 (Gly20”, “Lys488” for “Ala638”, “baculovirus infected insect Sf9” for “mouse NS0”
[18] = species on record: Homo sapiens; experiment: Selectivity index, ratio of compound effect for inhibition of recombinant C-terminal 10-His tagged human KLK14 (Gln19 to Met248 residues) expressed in mouse NS0 cells to compound effect for inhibition of recombinant 6His-Q-FLAG tagged human KLK5 expressed in baculovirus infected insect Sf9 cells
[19] = species on record: Homo sapiens; experiment: Selectivity index, ratio of compound effect for inhibition of recombinant C-terminal 10-His tagged human urokinase (Met1 to Leu431 residues) expressed in mouse NS0 cells to compound effect for inhibition of recombinant 6His-Q-FLAG tagged human KLK5 expressed in baculovirus infected insect Sf9 cells
[20] = biological target: Urokinase-type plasminogen activator (Homo sapiens, UniProt P00749); experiment: Inhibition of recombinant C-terminal 10His-tagged human urokinase (Met1 to Leu431 residues) expressed in mouse NS0 cells using Z-GGR-AMC as substrate after 40 mins by fluorescence intensity assay
[21] = biological target: Kallikrein-1 (Homo sapiens, UniProt P06870); experiment: Inhibition of recombinant bovine enterokinase activated N-terminal His-tagged recombinant human KLK1 (19 to 262 residues) expressed in baculovirus infected Sf9 insect cells using 3',6'-bis(prolylphenylalanylarginylamino)3H-spiro(2-benzofuran-1,9'-xanthen)-3-one;TFA as substrate measured at 30 secs interval for 5 mins by fluorescence intensity assay
[22] = Half life in pH 6 buffer at 0.05 mg/ml under H2O2-induced oxidative condition over 24 hrs; assay type: physicochemical; conditions: buffer with H2O2, pH 6
[23] = species on record: Homo sapiens; experiment: Selectivity index, ratio of compound effect for inhibition of recombinant C-terminal 10-His tagged human KLK8 (Gln29 to Gly260 residues) expressed in mouse NS0 cells to compound effect for inhibition of recombinant 6His-Q-FLAG tagged human KLK5 expressed in baculovirus infected insect Sf9 cells
[24] = species on record: Homo sapiens; experiment: Selectivity index, ratio of compound effect for inhibition of human neutrophil elastase to compound effect for inhibition of recombinant 6His-Q-FLAG tagged human KLK5 expressed in baculovirus infected insect Sf9 cells

N=C(N)c1ccc(NCc2nc(-c3ccccc3)c[nH]2)cc1OCc1cccnc1
solubility at 24 h [1]: 1000 µg/mL (≈ 2510 µM) | IC50 [2]: 0.0794 µM | Activity [3]: Non-Toxic | IC50 [4]: 3.98 µM | Activity [5]: > 1000 a.u.L/mol.cm | Activity [6]: Non-Toxic | IC50 [7]: > 100 µM | Selectivity Index [8]: > 100 | Activity [9]: > 290 nm | solubility at 24 h [10]: 290 µg/mL (≈ 728 µM) | half-life at 0.05 mg/ml [11]: 10.1 h | IC50 [12]: 6.31 µM | solubility at 24 h [13]: 180 µg/mL (≈ 452 µM) | IC50 [14]: > 100 µM | Selectivity Index [15]: > 100 | IC50 [16]: 63.1 µM | Selectivity Index [17]: > 100 | Selectivity Index [18]: > 100 | Selectivity Index [19]: > 100 | IC50 [20]: > 100 µM | IC50 [21]: 63.1 µM | half-life at 0.05 mg/ml [22]: 27.8 h | Selectivity Index [23]: 10 | Selectivity Index [24]: > 100

From ChEMBL document CHEMBL4387717, “Structure guided drug design to develop kallikrein 5 inhibitors to treat Netherton syndrome” (Bioorg Med Chem Lett, 2019)
